From US12509446B2, “FYN and VEGFR2 kinase inhibitors” (ROTTAPHARM BIOTECH S.R.L., priority 2019, dated 2025)
pIC50: −log10 of the molar value.

Biological target: Fyn-NanoLuc fusion protein (Homo sapiens (Human), UniProt P06241)
Assay: NanoBRET intracellular target engagement of Fyn in HEK293 transfected cells
Format: cell-based
Conditions: 2 hours treatment, tracer 0.33 μM, read-out: IC50 binding value towards the Fyn-NanoLuc fusion protein
Experimental: The NanoBRET™ TE intracellular kinase assay K-4 (Promega, #N2520) was used to determine the intracellular target engagement of Fyn kinase in HEK293 cells (ATCC®, Cat. CRL-1573) transiently transfected with Fyn-NanoLuc® fusion vector (Promega, #NV1411), therefore expressing the Fyn-NanoLuc© fusion protein. The tracer was used at the final concentration of 0.33 μM, and the treatment of cells with Compounds was performed for 2 hours. Luminescence values were measured at 450 nm and 610 nm (GloMax® Discover, Promega) and raw BRET ratio values for each sample were determined. Compounds that specifically engage the intracellular target protein-NanoLuc® fusion will result in a decrease in BRET signal and in lower BRET ratio values

Fyn-NanoLuc fusion protein, sequence (P06241 whole entry, the tested form may be a part): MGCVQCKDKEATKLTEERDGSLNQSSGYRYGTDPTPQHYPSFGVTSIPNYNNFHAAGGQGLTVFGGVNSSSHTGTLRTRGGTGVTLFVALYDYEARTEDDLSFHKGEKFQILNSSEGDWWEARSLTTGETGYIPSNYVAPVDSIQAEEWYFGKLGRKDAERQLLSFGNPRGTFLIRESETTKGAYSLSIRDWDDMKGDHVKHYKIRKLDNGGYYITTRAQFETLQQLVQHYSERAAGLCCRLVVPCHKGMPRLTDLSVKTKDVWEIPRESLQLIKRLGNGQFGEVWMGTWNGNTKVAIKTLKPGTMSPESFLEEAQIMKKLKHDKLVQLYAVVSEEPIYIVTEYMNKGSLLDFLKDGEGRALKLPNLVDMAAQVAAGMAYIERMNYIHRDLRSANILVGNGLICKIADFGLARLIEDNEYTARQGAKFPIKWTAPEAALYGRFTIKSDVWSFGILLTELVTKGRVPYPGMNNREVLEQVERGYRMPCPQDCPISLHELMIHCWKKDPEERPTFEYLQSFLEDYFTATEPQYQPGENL

SMILES: Cc1ccc(NC(=O)c2cccc(C(F)(F)F)c2)cc1CCc1cc(Nc2cnccn2)[nH]n1 [Compound 3, N-(4-methyl-3-(2-(5-(pyrazin-2-ylamino)-1H-pyrazol-3-yl)ethyl)phenyl)-3-(trifluoromethyl)benzamide]
- pIC50: 5.82
